Test results from patent US10179164B2, “Method for inducing an immune response for treatment of cancer and autoimmune diseases or conditions” (priority 2011, dated 2019).

Tests used:
[1] = tested on: collagen induced arthritis (CIA) model in DBA/IJ mice; assay: Collagen induced arthritis (CIA) model, Arthritis Index; format: in vivo
Procedure: The following study is of CEL-2000 therapeutic vaccine for collagen induced arthritis (CIA) where the first step was to identify a good animal model for testing the vaccine, which is the collagen induced arthritis (CIA) model in young (6-7) week old male DBA/IJ mice. These mice received 2 injections of bovine collagen the first in complete Freund's adjuvant (CFA) on day 0 and then 3 weeks later on day 21, in Incomplete CFA. After the second collagen injection, the mice were evaluated daily for any joint swelling or redness. Each of the paws was scored on a 4 point scale (Arthritis Index (AI) with respect to the number of digits with symptoms and the thickness of the paw measured, at least 3-4 times a week. Each mouse was weighed weekly.
When significant disease is noted, usually about day 28, the mice are grouped (n=8) with a range of scores between 1 and 6 and group mean of 2.5 to 3. At this point the therapy begins according to protocol. Controls include groups with induced disease but no therapy and groups of healthy mice without induced disease. A therapy control of Enbrel® (3 mg/kg, every other day) was included. Over the 28-day course of study, the outcomes of different CEL-2000 and CEL-2003 treatment schedules were compared with Enbrel. In this study, CEL-200 treatment with 2 doses of 33 or 100 nmol were given subcutaneously on days 0 and 7 or on days 0 and 14. CEL-2003 was used at one dose of […] on days 0 and 14. […] The AI score for each paw (4 paws total) were added for each group and reported on FIG. 4.

[2] = tested on: C57BL/6 bone marrow cells (monocyte population); assay: Flow cytometry of CD11c and CD86 expression on peptide-treated bone marrow cells; format: cell-based, mouse (C57BL/6); conditions: BM monocyte population by light scatter, second day after treatment; for CD11c expression: PE-anti-CD11c, versus untreated; for CD86 expression: PE-anti-CD86, versus untreated
Procedure: Bone marrow (BM) cells were prepared. Briefly, the femurs and tibias were obtained from five C57BL/6 female mice, and the ends were removed to expose the hollow bone packed with marrow. BM cells were flushed from the bones with cold Hanks Balanced Salt Solution (HBSS) using a sterile disposable 22 g needle and pooled. Red blood cells (RBCs) were lysed using Tris-buffered ammonium chloride and resultant cells were washed 3 times in HBSS, BM cells were suspended in tissue culture medium (TCM) (RPMI 1640 with glutaminic plus […] PenStrep, 50 μM 2-mercaptoethanol, and 5% fetal calf serum) at approximately 5×10^6 cells/ml and incubated for 1 hour at 37° C. in a 5% CO2 atmosphere in plastic tissue culture flasks to remove adherent, mature macrophages. Decanted non-adherent cells were resuspended in TCM and 1.5×10^6 BM cells in 1 ml were placed into each well of a 24 well tissue culture plate (Falcon) and either left untreated or treated with […] of peptide J or JgD LEAPS™ heteroconjugate. After incubation for 48 hrs at 37° C., cells were viewed and photographed for changes in morphology, tissue culture supernatants were removed and the cells were prepared for flow cytometric analysis.
For analysis of CD11c and CD86 expression, untreated and peptide treated BM cells, prepared and treated as described above, were labeled with PE-anti-Cd11c or PE-anti CD86 (Beckman Coulter Fullerton, Calif.) At least […] were analyzed (Altra FACS, Beckman Coulter) using forward and side scatter parameters to limit (gating) the immunofluorescence analysis to cells of the size and granularity of monocytes and dendritic cells.
The monocyte population of BM cells, as defined by light scatter parameters, was analyzed on the second day after treatment with J, gD, JgD or JH.

[3] = tested on: IL-12p70; assay: Intracellular IL-12p70 flow cytometry of CD3- bone marrow cells; format: cell-based, mouse (C57BL/6); conditions: CD3- BM cells, PE-anti-IL-12p70
Source text: CD3+ cells were removed from BM cells using the fluorescence activated cell sorter and then untreated or treated with JgD, gD or JH. Flow cytometric analysis of the sorted population confirmed the removal of CD3 positive cells. The CD3− BM cells were labeled with FIT C-anti-CD8 (Beckman Coulter (clone 53-6.7)), fixed with paraformaldehyde, permeabilized with saponin (Intraprep, Immunotech), labeled with PE-anti-IL-12p70 (Beckman Coulter) and then post fixed with paraformaldehyde prior to immunofluorescence analysis.

Sequence | progression of arthritis disease (AI score) ([1]; 100 nmol dose (3x treatment) subcutaneously on days 0 and 7, 28-day study) | progression of arthritis disease compared with Enbrel ([1]; 2 doses of 33 or 100 nmol s.c. on days 0 and 7 or 0 and 14 (most regimes), Enbrel 3 mg/kg every other day for 28 days) | Student t test comparison of treatment groups with Enbrel ([1]; days 7, 14 and 21, 3x dose days 0 and 14, 3x days 0 and 7, 1x days 0 and 7 or 0 and 14) | CD11c expression [2] | CD86 expression [2] | IL-12p70 expressing cells [3]
DLLKNGERIEKVEGGGTGGKPGIAGFKGEQGPKGEP (Heteroconjugate construct) [CEL-2000, Peptide J linked to the human type II collagen peptide 254-273 through a triglycine linker] | appeared to limit the progression of disease throughout the experimental period | at least as good as those of mice treated with Enbrel® | slightly better than Embrel |  |  | 
DLLKNGERIEKVEGGGSLKMADPNRFRGKDLP [JgD] |  |  |  | expressed | expressed | 
SLKMADPNRFRGKDLP [gD] |  |  |  | no discernible change | no discernible change | 
DLLKNGERIEKVE (listed as Homo sapiens) [J-ICBL, ICBL derived from amino acids 38-50 of the β-2-microglobulin chain of the MHC 1 molecule] |  |  |  | no discernible change | no discernible change | no significant increase
